Read-outs that look alike come from different tables or passages of the source.
Assay: Ocular tissue concentrations (aqueous humor, vitreous humor, iris, retina, choroid, cornea) after topical ocular, subcutaneous and intravitreal administration
Assay type: in vivo, New Zealand White rabbits
Conditions: New Zealand White, rabbit; for concentration at 2 h / concentration at 4 h / concentration at 0.5 h / concentration at 1 h: subcutaneous, 5 mg/kg/dose, subcutaneous 5 mg/kg/dose; for concentration at 6 hr / concentration at 24 hr / concentration at 48 hr / concentration at 72 hr: other: intravitreal, 2.5 mg/eye
Description: To measure the concentration of Compound 1 in plasma and ocular tissues following topical ocular, subcutaneous, and intravitreal administration, New Zealand White rabbits were administered Compound 1, and plasma and ocular samples were collected at pre-determined time points. Compound 1 formulations were prepared fresh on each day of dosing.
Ocular tissue samples from both eyes of each animal were collected and weights were recorded. Plasma and ocular tissue sample concentrations of Compound 1 were determined by LC-MS/MS.
New Zealand White rabbits weighing 2.5 to 3.5 kg were used on this study. Rabbits were housed one per cage. Animals were not fasted and only healthy animals with no ocular illness were used. Two rabbits per group were sacrificed at each of four ocular tissue sampling time points for a total of eight rabbits per group.
Animals were anesthetized for ocular (topical) and intravitreal dosing following the 12IA7 IACUC protocol. Each rabbit received a bolus dose of test formulation either via topical ocular administration 3 times daily on Days 1 and 2 (at 0, 6, and 12 hours), and once on Day 3 (at 0 hours) into both eyes; via intravitreal administration into both eyes once on Day 1 (at 0 hours); or via subcutaneous administration 2 times daily on Days 1 and 2 (at 0 and 8 hours) and once daily on Day 3 (at 0 hours). Doses were given within an approximately 1 hour window each day where applicable.
On Day 1, for intravitreal administration, or on Day 3, for topical ocular and subcutaneous administration, at the appropriate ocular tissue collection time points, animals were euthanized and both eyes were enucleated immediately. Following enucleation, each eye was rinsed with phosphate-buffered saline. Ocular tissue samples from both eyes of each animal were collected at predetermined time points and weights were recorded. All the samples were frozen immediately on dry ice, and stored at −60° C. to −80° C. pending bioanalysis.
An LC-MS/MS method was developed for the determination of Compound 1 in rabbit aqueous tissues (plasma, aqueous and vitreous humor) and solid ocular tissue samples. A pre-study standard curve was analyzed to determine the specificity, range, and lower limit of quantitation of the method. Plasma and tissue homogenate study samples were extracted and analyzed. All the samples were treated identically to the standards.
One eight-point standard curve was used in each analytical batch. To be accepted, each batch must have had at least five of eight standards with accuracy within ±20% of nominal, except at the lower limit of quantification (LLOQ), where ±25% was acceptable.
Concentration versus time data is plotted in FIGS. 3-16. All data are expressed as ng/g of the free drug. Samples that were below the limit of quantitation (0.2 ng/mL) were not used in the calculation of averages.

[1] = choroid, TABLE 16: Choroid, free acid, Group 3, read-out: Choroid Average
[2] = cornea homogenate, Cornea homogenate, OD, sodium salt, intravitreal 2.5 mg/eye, Group 4, read-out: Cornea Conc. (ng/mL) OD
[3] = cornea homogenate, Cornea homogenate, OS, sodium salt, intravitreal 2.5 mg/eye, Group 4, read-out: Cornea Conc. (ng/mL) OS
[4] = cornea homogenate, Cornea homogenate, right eye, intravitreal 2.5 mg/eye (group 5), individual animals, read-out: Conc. (ng/mL) OD
[5] = cornea homogenate, Cornea homogenate, left eye, intravitreal 2.5 mg/eye (group 5), individual animals, read-out: Conc. (ng/mL) OS
[6] = cornea homogenate, Cornea homogenate, OD, free acid, Group 3, read-out: Cornea Conc. (ng/mL) OD
[7] = cornea homogenate, Cornea homogenate, OS, free acid, Group 3, read-out: Cornea Conc. (ng/mL) OS
[8] = cornea homogenate, Cornea homogenate, OS, sodium salt, Group 2, read-out: Cornea Conc. (ng/mL) OS
[9] = cornea homogenate, Cornea homogenate, OD, sodium salt, Group 2, read-out: Cornea Conc. (ng/mL) OD
[10] = cornea homogenate, TABLE 16: Cornea homogenate, OD, free acid, Group 3, read-out: Cornea Conc. (ng/mL) OD
[11] = cornea homogenate, TABLE 16: Cornea homogenate, OS, free acid, Group 3, read-out: Cornea Conc. (ng/mL) OS
[12] = cornea, Cornea, OD, sodium salt, intravitreal 2.5 mg/eye, Group 4, read-out: Cornea Conc. (ng/g) OD
[13] = cornea, Cornea, OS, sodium salt, intravitreal 2.5 mg/eye, Group 4, read-out: Cornea Conc. (ng/g) OS
[14] = cornea, Cornea, average, intravitreal 2.5 mg/eye (group 5), read-out: Avg.
[15] = cornea, Cornea, right eye, intravitreal 2.5 mg/eye (group 5), individual animals, read-out: Conc. (ng/g) OD
[16] = cornea, Cornea, sodium salt, intravitreal 2.5 mg/eye, Group 4, read-out: Cornea Avg.
[17] = cornea, Cornea, left eye, intravitreal 2.5 mg/eye (group 5), individual animals, read-out: Conc. (ng/g) OS
[18] = cornea, Cornea, OD, free acid, Group 3, read-out: Cornea Conc. (ng/g) OD
[19] = cornea, Cornea, OS, sodium salt, Group 2, read-out: Cornea Conc. (ng/g) OS
[20] = cornea, Cornea, free acid, Group 3, read-out: Cornea Average
[21] = cornea, Cornea, sodium salt, Group 2, read-out: Cornea Average
[22] = cornea, Cornea, OD, sodium salt, Group 2, read-out: Cornea Conc. (ng/g) OD
[23] = cornea, TABLE 16: Cornea, OD, free acid, Group 3, read-out: Cornea Conc. (ng/g) OD
[24] = cornea, TABLE 16: Cornea, free acid, Group 3, read-out: Cornea Average

Structure (SMILES): COC(=O)N[C@@H](Cc1ccccc1)C(=O)N[C@@H](Cc1ccc(NS(=O)(=O)O)cc1)c1csc(-c2cccs2)n1 [Compound 1]
- concentration at 2 h (choroid, TABLE 16: Choroid, OS, free acid, Group 3, read-out: Choroid Conc. (ng/g) OS): 53.2 ng/g
- concentration at 2 h [1]: 47.7 ng/g
- concentration at 4 h (choroid, TABLE 16: Choroid, OD, free acid, Group 3, read-out: Choroid Conc. (ng/g) OD): 53 ng/g
- concentration at 4 h [1]: 61 ng/g
- concentration at 6 hr [2]: 6300 ng/mL
- concentration at 6 hr [3]: 6940 ng/mL
- concentration at 6 hr [4]: 7910 ng/mL
- concentration at 24 hr [2]: 2180 ng/mL
- concentration at 24 hr [3]: 1560 ng/mL
- concentration at 24 hr [5]: 1190 ng/mL
- concentration at 24 hr [4]: 1520 ng/mL
- concentration at 48 hr [2]: 1050 ng/mL
- concentration at 48 hr [3]: 662 ng/mL
- concentration at 48 hr [5]: 293 ng/mL
- concentration at 48 hr [4]: 437 ng/mL
- concentration at 0.5 h [6]: 0.55 ng/mL
- concentration at 0.5 h [7]: 0.897 ng/mL
- concentration at 0.5 h [8]: 2.46 ng/mL
- concentration at 1 h [6]: 1.11 ng/mL
- concentration at 1 h [9]: 2.37 ng/mL
- concentration at 1 h [8]: 4.52 ng/mL
- concentration at 2 h [6]: 0.514 ng/mL
- concentration at 2 h [8]: 0.998 ng/mL
- concentration at 4 h [6]: 0.942 ng/mL
- concentration at 4 h [9]: 0.752 ng/mL
- concentration at 4 h [7]: 2.51 ng/mL
- concentration at 4 h [8]: 0.784 ng/mL
- concentration at 0.5 h [10]: 0.55 ng/mL
- concentration at 0.5 h [11]: 0.897 ng/mL
- concentration at 1 h [10]: 1.11 ng/mL
- concentration at 2 h [10]: 0.514 ng/mL
- concentration at 4 h [10]: 0.942 ng/mL
- concentration at 4 h [11]: 2.51 ng/mL
- concentration at 6 hr [12]: 69300 ng/g
- concentration at 6 hr [13]: 76300 ng/g
- concentration at 6 hr [14]: 54600 ng/g
- concentration at 6 hr [15]: 87000 ng/g
- concentration at 6 hr [16]: 71400 ng/g
- concentration at 24 hr [12]: 24000 ng/g
- concentration at 24 hr [13]: 17200 ng/g
- concentration at 24 hr [14]: 17300 ng/g
- concentration at 24 hr [17]: 13100 ng/g
- concentration at 24 hr [15]: 16700 ng/g
- concentration at 24 hr [16]: 23700 ng/g
- concentration at 48 hr [12]: 11600 ng/g
- concentration at 48 hr [13]: 7280 ng/g
- concentration at 48 hr [14]: 4630 ng/g
- concentration at 48 hr [17]: 3220 ng/g
- concentration at 48 hr [15]: 4810 ng/g
- concentration at 48 hr [16]: 7530 ng/g
- concentration at 72 hr [14]: 762 ng/g
- concentration at 72 hr [16]: 421 ng/g
- concentration at 0.5 h [18]: 6.05 ng/g
- concentration at 0.5 h (cornea, Cornea, OS, free acid, Group 3, read-out: Cornea Conc. (ng/g) OS): 9.87 ng/g
- concentration at 0.5 h [19]: 27.1 ng/g
- concentration at 0.5 h [20]: 7.96 ng/g
- concentration at 0.5 h [21]: 19.4 ng/g
- concentration at 1 h [18]: 12.2 ng/g
- concentration at 1 h [22]: 26.1 ng/g
- concentration at 1 h [19]: 25.3 ng/g
- concentration at 1 h [20]: 12.2 ng/g
- concentration at 1 h [21]: 31.1 ng/g
- concentration at 2 h [18]: 5.65 ng/g
- concentration at 2 h [22]: 11.7 ng/g
- concentration at 2 h [19]: 11 ng/g
- concentration at 2 h [20]: 5.65 ng/g
- concentration at 2 h [21]: 9.45 ng/g
- concentration at 4 h [18]: 10.4 ng/g
- concentration at 4 h [22]: 8.27 ng/g
- concentration at 4 h [19]: 8.62 ng/g
- concentration at 4 h [20]: 15.8 ng/g
- concentration at 4 h [21]: 10.1 ng/g
- concentration at 0.5 h [23]: 6.05 ng/g
- concentration at 0.5 h (cornea, TABLE 16: Cornea, OS, free acid, Group 3, read-out: Cornea Conc. (ng/g) OS): 9.87 ng/g
- concentration at 0.5 h [24]: 7.96 ng/g
- concentration at 1 h [23]: 12.2 ng/g
- concentration at 1 h [24]: 12.2 ng/g
- concentration at 2 h [23]: 5.65 ng/g
- concentration at 2 h [24]: 5.65 ng/g
